# Values of other authors, collected in patent publication US8748086B2, “Aqueous solution for the preservation of tissues and organs” (Universidad de Barcelona, priority 2008, dated 2014).
# How the values were obtained:
# [1] = test system: non-steatotic and steatotic livers; details: prolonged ischemic periods; Ben Mosbah et al. 2006
# [2] = test system: hearts; details: tacrolimus in UW preservation solution; Rajesh et al. 2003
Compound,capacity of the preservation solution to protect livers [1],effect on preservation of hearts [2]
COc1ccc(CN2CCNCC2)c(OC)c1OC [trimetazidine],improved the capacity of this standard preservation solution to protect,–
"C=CC[C@@H]1/C=C(\C)C[C@H](C)C[C@H](OC)[C@H]2O[C@@](O)(C(=O)C(=O)N3CCCC[C@H]3C(=O)O[C@H](/C(C)=C/[C@@H]3CC[C@@H](O)[C@H](OC)C3)[C@H](C)[C@@H](O)CC1=O)[C@H](C)C[C@@H]2OC [tacrolimus, Tacrolimus]",–,failed to have any effect on preservation
